Source: PMC4457528, “Identification of Novel Small Molecule Inhibitors of Oncogenic RET Kinase” (PLoS ONE, 2015)
Like-named read-outs stand apart in the source and are kept apart here.

Legend:
Experiment in all cases: KinomeScan kinase panel, single concentration 10 µM
Format in all cases: binding
KinomeScan kinase panel [1] = molecular target: T1, KinomeScan kinase panel (Homo sapiens, UniProt O00329); details: PIK3CD, 10 µM; read-out: score (%)
T1 construct: purchased DiscoveRx (KinomeScan)
T1 sequence (O00329 1-1044): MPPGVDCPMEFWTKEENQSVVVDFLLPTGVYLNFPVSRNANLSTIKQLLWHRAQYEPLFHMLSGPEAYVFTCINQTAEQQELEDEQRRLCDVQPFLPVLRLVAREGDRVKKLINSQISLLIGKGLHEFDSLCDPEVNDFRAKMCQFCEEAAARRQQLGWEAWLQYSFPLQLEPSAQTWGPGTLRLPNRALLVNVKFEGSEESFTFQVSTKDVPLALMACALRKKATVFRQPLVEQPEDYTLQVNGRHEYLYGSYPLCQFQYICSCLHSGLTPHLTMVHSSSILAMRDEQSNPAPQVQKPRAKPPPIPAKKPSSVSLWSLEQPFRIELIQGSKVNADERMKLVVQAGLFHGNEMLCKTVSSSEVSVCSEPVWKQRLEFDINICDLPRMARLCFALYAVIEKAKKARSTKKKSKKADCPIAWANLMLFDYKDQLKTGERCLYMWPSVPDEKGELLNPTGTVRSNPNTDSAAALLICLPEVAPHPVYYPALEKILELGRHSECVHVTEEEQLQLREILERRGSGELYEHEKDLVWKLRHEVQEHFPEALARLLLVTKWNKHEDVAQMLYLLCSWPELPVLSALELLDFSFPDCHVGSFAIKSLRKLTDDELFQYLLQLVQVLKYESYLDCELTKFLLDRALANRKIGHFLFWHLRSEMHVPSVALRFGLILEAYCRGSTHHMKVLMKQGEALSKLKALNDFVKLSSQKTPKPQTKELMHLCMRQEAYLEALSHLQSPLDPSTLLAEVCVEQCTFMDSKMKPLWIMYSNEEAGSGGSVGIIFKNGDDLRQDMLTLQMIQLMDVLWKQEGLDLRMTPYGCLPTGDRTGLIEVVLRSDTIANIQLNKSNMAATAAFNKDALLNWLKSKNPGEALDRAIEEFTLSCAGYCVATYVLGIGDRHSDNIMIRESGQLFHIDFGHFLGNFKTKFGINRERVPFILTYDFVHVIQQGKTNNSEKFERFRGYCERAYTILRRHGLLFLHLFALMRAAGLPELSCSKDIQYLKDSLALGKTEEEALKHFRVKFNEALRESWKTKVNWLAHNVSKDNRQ

KinomeScan kinase panel [2] = molecular target: T2, KinomeScan kinase panel (Homo sapiens, UniProt O14578); details: CIT, 10 µM
T2 construct: purchased DiscoveRx (KinomeScan)

KinomeScan kinase panel [3] = molecular target: T3, KinomeScan kinase panel (Homo sapiens, UniProt P51817); details: 10 µM, read-out: score (%)
T3 construct: purchased DiscoveRx (KinomeScan)
T3 sequence (P51817 1-358): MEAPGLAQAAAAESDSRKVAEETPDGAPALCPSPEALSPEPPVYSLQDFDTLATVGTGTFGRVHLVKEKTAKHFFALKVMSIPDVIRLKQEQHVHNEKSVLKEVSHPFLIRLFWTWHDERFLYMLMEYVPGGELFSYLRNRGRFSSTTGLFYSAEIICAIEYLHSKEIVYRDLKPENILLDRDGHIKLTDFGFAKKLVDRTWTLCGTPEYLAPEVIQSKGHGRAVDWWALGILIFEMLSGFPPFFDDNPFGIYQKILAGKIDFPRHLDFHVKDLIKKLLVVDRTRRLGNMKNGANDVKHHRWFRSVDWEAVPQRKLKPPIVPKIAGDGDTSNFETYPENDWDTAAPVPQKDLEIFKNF

KinomeScan kinase panel [4] = molecular target: T4, KinomeScan kinase panel (Homo sapiens, UniProt Q8TDC3); details: BRSK1, 10 µM; read-out: score (%)
T4 construct: purchased DiscoveRx (KinomeScan)
T4 sequence (Q8TDC3 1-778): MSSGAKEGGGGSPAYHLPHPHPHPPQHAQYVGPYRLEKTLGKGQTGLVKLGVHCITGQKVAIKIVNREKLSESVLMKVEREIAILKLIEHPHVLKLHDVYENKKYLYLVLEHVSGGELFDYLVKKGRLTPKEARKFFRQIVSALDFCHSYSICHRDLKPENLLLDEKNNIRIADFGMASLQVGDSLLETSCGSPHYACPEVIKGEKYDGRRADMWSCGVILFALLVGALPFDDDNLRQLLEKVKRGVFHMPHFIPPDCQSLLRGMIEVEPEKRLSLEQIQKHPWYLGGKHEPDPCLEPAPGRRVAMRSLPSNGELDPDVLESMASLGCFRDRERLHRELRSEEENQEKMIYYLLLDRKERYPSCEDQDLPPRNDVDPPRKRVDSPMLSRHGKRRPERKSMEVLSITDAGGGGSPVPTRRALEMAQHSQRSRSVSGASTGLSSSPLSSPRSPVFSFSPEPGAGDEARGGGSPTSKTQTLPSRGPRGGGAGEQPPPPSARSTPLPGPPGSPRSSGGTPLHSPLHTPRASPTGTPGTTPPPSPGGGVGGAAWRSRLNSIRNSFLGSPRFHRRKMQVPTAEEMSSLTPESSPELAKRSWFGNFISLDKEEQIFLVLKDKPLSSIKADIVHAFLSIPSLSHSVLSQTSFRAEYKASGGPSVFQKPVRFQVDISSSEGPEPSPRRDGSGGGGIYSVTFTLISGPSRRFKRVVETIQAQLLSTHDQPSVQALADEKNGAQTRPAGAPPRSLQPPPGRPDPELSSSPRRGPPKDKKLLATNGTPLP

KinomeScan kinase panel [5] = molecular target: T5, KinomeScan kinase panel (Homo sapiens, UniProt Q9NY57); details: kinase YANK2; 10 µM; read-out: score (%)
T5 construct: purchased DiscoveRx (KinomeScan)
T5 sequence (Q9NY57 whole entry): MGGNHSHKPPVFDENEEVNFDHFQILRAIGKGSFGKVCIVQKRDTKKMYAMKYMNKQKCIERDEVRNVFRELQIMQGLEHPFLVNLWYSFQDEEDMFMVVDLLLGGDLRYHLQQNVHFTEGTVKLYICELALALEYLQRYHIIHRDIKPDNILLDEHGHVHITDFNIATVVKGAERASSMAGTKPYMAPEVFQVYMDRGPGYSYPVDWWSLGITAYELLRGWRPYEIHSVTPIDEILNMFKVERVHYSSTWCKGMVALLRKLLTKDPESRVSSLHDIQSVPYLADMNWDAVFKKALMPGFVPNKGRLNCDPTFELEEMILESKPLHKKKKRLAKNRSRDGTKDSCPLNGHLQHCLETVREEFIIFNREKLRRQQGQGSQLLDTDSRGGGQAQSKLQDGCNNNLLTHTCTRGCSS

T2 sequence (O14578 whole entry): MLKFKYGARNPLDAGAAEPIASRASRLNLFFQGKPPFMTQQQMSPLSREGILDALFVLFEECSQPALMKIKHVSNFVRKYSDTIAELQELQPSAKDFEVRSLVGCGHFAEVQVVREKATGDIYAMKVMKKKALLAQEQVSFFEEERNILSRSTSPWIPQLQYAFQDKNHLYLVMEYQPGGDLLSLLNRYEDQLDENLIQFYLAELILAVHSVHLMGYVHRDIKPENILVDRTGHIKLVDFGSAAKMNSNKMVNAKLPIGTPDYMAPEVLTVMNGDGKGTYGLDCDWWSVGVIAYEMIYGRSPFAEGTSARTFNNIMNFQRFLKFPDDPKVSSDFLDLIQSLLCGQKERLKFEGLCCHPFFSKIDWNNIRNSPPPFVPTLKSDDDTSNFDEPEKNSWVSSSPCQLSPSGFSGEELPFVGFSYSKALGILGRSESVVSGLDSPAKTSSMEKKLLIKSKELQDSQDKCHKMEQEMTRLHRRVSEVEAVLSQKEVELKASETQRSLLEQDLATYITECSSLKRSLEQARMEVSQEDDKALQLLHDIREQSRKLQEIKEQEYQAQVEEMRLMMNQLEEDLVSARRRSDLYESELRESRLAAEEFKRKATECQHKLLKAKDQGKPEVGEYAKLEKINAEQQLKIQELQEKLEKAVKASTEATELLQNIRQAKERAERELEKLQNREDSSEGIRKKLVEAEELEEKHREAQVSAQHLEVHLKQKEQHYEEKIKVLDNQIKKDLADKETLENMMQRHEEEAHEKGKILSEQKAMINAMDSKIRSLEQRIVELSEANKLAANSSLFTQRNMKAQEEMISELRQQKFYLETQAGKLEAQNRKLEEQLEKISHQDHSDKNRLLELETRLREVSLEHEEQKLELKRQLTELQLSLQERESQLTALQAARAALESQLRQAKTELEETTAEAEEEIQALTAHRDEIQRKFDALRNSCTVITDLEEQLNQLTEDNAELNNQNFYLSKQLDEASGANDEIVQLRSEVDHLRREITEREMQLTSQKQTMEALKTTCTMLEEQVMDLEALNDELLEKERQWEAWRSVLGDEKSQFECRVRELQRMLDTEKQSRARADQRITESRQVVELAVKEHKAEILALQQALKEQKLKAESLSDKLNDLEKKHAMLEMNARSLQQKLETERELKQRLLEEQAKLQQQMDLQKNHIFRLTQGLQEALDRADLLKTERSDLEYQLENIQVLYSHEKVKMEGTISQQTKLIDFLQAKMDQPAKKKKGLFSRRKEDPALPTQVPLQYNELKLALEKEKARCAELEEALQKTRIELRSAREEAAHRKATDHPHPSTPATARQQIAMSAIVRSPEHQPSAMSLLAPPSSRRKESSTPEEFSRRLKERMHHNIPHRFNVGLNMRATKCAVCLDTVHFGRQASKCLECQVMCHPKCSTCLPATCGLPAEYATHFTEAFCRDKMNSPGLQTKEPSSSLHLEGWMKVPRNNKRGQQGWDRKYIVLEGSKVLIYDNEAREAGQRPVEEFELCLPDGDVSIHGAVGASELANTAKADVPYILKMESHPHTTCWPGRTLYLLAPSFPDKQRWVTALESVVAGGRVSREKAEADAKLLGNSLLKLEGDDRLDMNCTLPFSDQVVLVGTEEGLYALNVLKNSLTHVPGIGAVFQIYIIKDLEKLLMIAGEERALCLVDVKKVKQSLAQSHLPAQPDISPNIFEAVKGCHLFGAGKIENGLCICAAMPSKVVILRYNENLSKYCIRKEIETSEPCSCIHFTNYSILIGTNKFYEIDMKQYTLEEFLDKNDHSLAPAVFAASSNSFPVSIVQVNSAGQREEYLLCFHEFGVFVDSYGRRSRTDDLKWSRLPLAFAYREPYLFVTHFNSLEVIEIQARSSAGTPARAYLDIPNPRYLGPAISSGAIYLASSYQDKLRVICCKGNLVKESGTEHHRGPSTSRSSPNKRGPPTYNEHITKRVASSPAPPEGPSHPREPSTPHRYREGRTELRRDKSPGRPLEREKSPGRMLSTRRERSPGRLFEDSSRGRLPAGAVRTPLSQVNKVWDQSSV

Structure (SMILES)	remaining binding at 10 µM (KinomeScan kinase panel [1]) [%]	score (%) (KinomeScan kinase panel [2])	remaining binding at 10 µM (KinomeScan kinase panel [3]; PRKX) [%]	remaining binding at 10 µM (KinomeScan kinase panel [4]) [%]	remaining binding at 10 µM (KinomeScan kinase panel [5]) [%]	remaining binding at 10 µM (KinomeScan kinase panel [3]; kinase PRKX) [%]
CCN1CCN(Cc2ccc(NC(=O)c3ccc(C)c(NC(=O)c4cncc(-c5cccs5)c4)c3)cc2C(F)(F)F)CC1 [ALW-II-41-27]	> 30	14	> 30	> 30	> 30	–
CCN1CCN(Cc2ccc(NC(=O)c3ccc(C)c(C#Cc4cccnc4)c3)cc2C(F)(F)F)CC1 [XMD15-44]	76	0	–	> 30	100	3.6
CCN1CCN(Cc2ccc(NC(=O)c3ccc(C)c(/C=C/c4cnc5[nH]ccc5c4Cl)c3)cc2C(F)(F)F)CC1 [HG-6-63-01, (E)-3-(2-(4-chloro-1H-pyrrolo[2,3-b]pyridin-5-yl)vinyl)-N-(4-((4-ethylpiperazin-1-yl)methyl)-3-(trifluoromethyl)phenyl)-4-methylbenzamide]	> 30	0.2	> 30	> 30	> 30	–
